The record followed here is patent US9943525B2, “Composition for reducing cell senescence comprising Rho-kinase inhibitor and use thereof” (Samsung Electronics Co., Ltd., priority 2014, dated 2018).

Common to all, as to format: cell-based, human
The test system of data set [1] is senescent fibroblasts (after 37 cell passages). In words: mitochondrial membrane potential (JC-1) by flow cytometry. Conditions: vs control, p<0.05, FIG. 11. As for the experimental part: Mitochondrial membrane potentials were measured using a MitoProbe™ JC-1 Assay kit for Flow Cytometry (Life technologies, T3168) according to manufacturer's manuals. JC-1 is accumulated in mitochondria in a potential-dependent manner, and this accumulation is identified by fluorescence emission shift from green (about 529 nm) to red (about 590 nm). As a result, mitochondrial depolarization is identified by a decrease in a red/green fluorescence ratio. The mitochondrial membrane potentials were measured by excitation at 488 nm using a FACSCaliber (Beckton Dickinson) and using a flow cytometer by using 530/30 nm and 585/42 nm band pass filters. The results were analyzed using Cell Quest 3.2 software (Beckton Dickinson). FIG. 11 is a graph displaying action potentials of mitochondria. […] In FIG. 11, * indicates statistically significant (p<0.05). In FIG. 11, the vertical axis is mitochondrial membrane potential. “MMP” refers to mitochondria membrane potential.

Data set [2] has as its system senescent progeric fibroblasts (cell passage 17). The data set is described as above. Particulars: vs control, p<0.05, FIG. 20. As for the experimental part:
(§1) Progeric fibroblasts (Hutchinson-Gilford Progeria Syndrome Skin Fibroblasts, Coriell Cell Repositories, AG03198 B) were cultured in Dulbecco's Modified Eagle's Media (DMEM) supplemented with 10% fetal bovine serpm (FBS) and 100 unit/ml of penicillin, and 100 μg/ml of streptomycin (two antibiotics are purchased from Gibro-BRL and Grand Island, N.Y.) in a 5% CO2 incubator at 37° C. Subculturing was initiated when the cells were approximately 85% confluent in plates. Early subcultures were performed at a split ratio of 1:4, and later subcultures were performed at a split ratio of 1:2. When cell doubling time was 14 days, the cells were regarded as senescent progeric fibroblasts (cell passages 16 to 17).
The senescent progeric fibroblasts (cell passage 17) were seeded on each well of a 6-well plate in a concentration of 2,000 cells/well and cultured in the presence of 5 μM of Y-27632, 5 μM of FASUDIL, and 0.5 μM of SR3677 for 4 weeks in a 5% CO2 incubator at 37° C. The culture media were changed at every 4 days with new culture media supplemented with 5 μM of Y-27632, 5 μM of FASUDIL, and 0.5 μM of SR3677. A negative control group was prepared in the same manner, except that 0.05 (v/v) % of DMSO was used.
Mitochondrial membrane potentials were measured using a MitoProbe™ JC-1 Assay kit for Flow Cytometry (Life technologies, T3168) according to manufacturer's manuals. JC-1 is accumulated in mitochondria in a potential-dependent manner, and this accumulation is identified by fluorescence emission shift from green (about 529 nm) to red (about 590 nm). As a result, mitochondrial depolarization is identified by a decrease in a red/green fluorescence ratio. The mitochondrial membrane potentials were measured by excitation at 488 nm using a FACSCaliber (Beckton Dickinson) and using a flow cytometer by using 530/30 nm and 585/42 nm band pass filters. The results were analyzed using Cell Quest 3.2 software (Beckton Dickinson). FIG. 20 is a graph displaying action potentials of mitochondria. […] In FIG. 20, * indicates statistically significant (p<0.05). […]

Data set [3] has as its system senescent progeric fibroblasts (passage 17). In words: lipofuscin autofluorescence by flow cytometry. Conditions: 4 weeks, vs control, p<0.05, FIG. 18. As for the experimental part: as §1
In addition, the amounts of lipofuscin accumulated in the cultured cells were measured. Senescent progeric fibroblasts (passage 17) were cultured in the presence of 5 μM of Y-27632, 5 μM of FASUDIL, and 0.5 μM of SR3677 for 4 weeks in a 5% CO2 incubator at 37° C. The culture media were changed at every 4 days with new culture media supplemented with 5 μM of Y-27632, 5 μM of FASUDIL, and 0.5 μM of SR3677. Since lipofuscin has autofluorescence characteristics, light having a wavelength of 488 nm was irradiated to the cells by using a FACSCaliber (Beckton Dickinson) and light emission at 520 nm was measured. The results were analyzed using Cell Quest 3.2 software (Beckton Dickinson). FIG. 18 is a graph displaying amounts of lipofuscin in progeric fibroblasts (passage 17) cultured in the presence of Rho-kinase inhibitors Y-27632 (5 μM), Fasudil (5 μM), and SR3677 (0.5 μM). […] In FIG. 18, * indicates statistically significant (p<0.05).

Data set [4] relates to senescent fibroblasts (after 37 cell passages). In words: cell proliferation and colony formation, crystal violet stain. Particulars: 4 weeks; for cell proliferation and cell colony formation: vs DMSO. As for the experimental part:
as §1, with “Fibroblast cell lines” for “Progeric fibroblasts (Hutchinson-Gilford Progeria Syndrome Skin Fibroblasts, Coriell Cell Repositories, AG03198 B)”, “serum” for “serpm”, “The fibroblast cell lines (M11 strain) were obtained from a foreskin of a child. Subculture” for “Subculturing”, “senescent” for “senescent progeric”, “(passages 35” for “(cell passages 16”, “37).” for “17).”
In order to determine optimum concentrations of Rho-kinase inhibitors Y-27632 (Selleckchem, S1049, 50 mg 2HCl salt form), FASUDIL (Selleckchem, S1573, 500 mg HCl salt form), and SR3677 (Synkinase, SYN1083, 10 mg), the senescent fibroblasts (after 37 cell passages) were seeded on each well of a 6-well plate in a concentration of 2,000 cells/well, and the wells were treated with 1 μM, 5 μM, 10 μM, 20 μM, and 30 μM of Y-27632, 1 μM, 5 μM, 10 μM, 20 μM, and 30 μM of FASUDIL, and 0.01 μM, 0.05 μM, 0.1 μM, 0.5 μM, and 1 μM of SR3677. In addition, a negative control group was prepared in the same manner, except that dimethyl sulfoxide (DMSO) was used. The culture media supplemented with the Rho-kinase inhibitors were changed at every 4 days, and colonies were stained with a 0.05% crystal violet stain after 4 weeks.

As to `CN(C)CCOc1cc(-c2cn[nH]c2)ccc1NC(=O)C1COc2ccccc2O1` (stereo not drawn) [SR3677], the “action potentials of mitochondria (mitochondrial membrane potential)” value (“action potentials of mitochondria” for short) in data set [1] (0.5 μM) and in data set [2] (0.5 μM) was “significantly increased” each time. Moreover, the amounts of lipofuscin entry in data set [3] (0.5 μM) is listed as “significantly reduced”. The “cell proliferation and cell colony formation” value in data set [4] (0.5 μM, FIG. 1 C) was “greatest therapeutic effects”. Moreover, the “toxic effects on cell proliferation and cell colony formation” value (“toxic effects” below) in data set [4] (1 μM, FIG. 1 C) is “reduces cell proliferation and cell colony formation due to toxic effects”.

Take `C[C@@H](N)[C@H]1CC[C@H](C(=O)Nc2ccncc2)CC1` [Y-27632, (1R,4R)-4-((R)-1-aminoethyl)-N-(pyridin-4-yl)cyclohexanecarboxamide]: the “action potentials of mitochondria” value in data set [1] (5 μM) and in data set [2] (5 μM) was “significantly increased” in each case. Also, the amounts of lipofuscin entry in data set [3] (5 μM) is recorded as “significantly reduced”. Moreover, in data set [4] (5 μM, 10 μM, and 20 μM, FIG. 1 A), the “cell proliferation and cell colony formation” value is “greatest therapeutic effects”. For the same molecule, the “toxic effects” value in data set [4] (30 μM, FIG. 1 A) was “reduces cell proliferation and cell colony formation due to toxic effects”.

On to `O=S(=O)(c1cccc2cnccc12)N1CCCNCC1` [FASUDIL, 5-(1,4-diazepane-1-sulfonyl)isoquinoline], for which the “action potentials of mitochondria” value in data set [1] (5 μM) and in data set [2] (5 μM) was “significantly increased” throughout. Also, the amounts of lipofuscin result in data set [3] (5 μM) was “significantly reduced”. The “cell proliferation and cell colony formation” value in data set [4] (5 μM, FIG. 1 B) was “greatest therapeutic effects”. The “toxic effects” value in data set [4] (10 μM, 20 μM, and 30 μM, FIG. 1 B) was “reduces cell proliferation and cell colony formation due to toxic effects”.
